Results taken from patent publication US20130158063A1, “Compounds, Compositions and Methods Related to PPAR Antagonists” (GEORGETOWN UNIVERSITY, priority 2010, published 2013).
pEC50: −log10 of the molar value.

What was measured:
[1] = test system: PPARδ; assay: PPAR reporter assay in 293T cells, PPARδ (agonist GW501516); type: cell-based; conditions: 1 μM agonist GW501516
[2] = target: T1, PPARα (Homo sapiens, UniProt Q07869); assay: Fluorescent Polarization (FP) binding assay with corepressor peptides, PPARα; conditions: Nb = no binding
T1 construct: purchased Cayman Chemicals
T1 sequence (Q07869 239-466 limits assumed): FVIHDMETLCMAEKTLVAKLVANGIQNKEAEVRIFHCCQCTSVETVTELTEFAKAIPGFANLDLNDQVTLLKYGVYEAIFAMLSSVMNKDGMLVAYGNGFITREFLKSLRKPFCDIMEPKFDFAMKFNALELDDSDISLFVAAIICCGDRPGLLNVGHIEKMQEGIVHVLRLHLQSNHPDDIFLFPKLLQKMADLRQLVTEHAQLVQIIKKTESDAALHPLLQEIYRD
Description: (§1) For PPARγ screening, a fluorescent ligand supplied by Cayman Chemicals was also used. All compounds were dissolved in DMSO as 10 mM stock solutions and the final DMSO content in the assay was <1%. A TECAN Ultra 485 multi-functional microplate reader and GraphPad prism 4 software were used for measurements and analysis, respectively.
(§2) PPAR antagonists are expected to enhance the affinities of the corepressor peptides, and therefore, FP should increase as the compound concentration increases. Agonists would be expected to weaken the affinity of the same co-repressor peptide. Although this effect occurs for PPARγ, the dissociation of corepressor peptides varies for PPARα and PPARδ due to altered presentations of the overlapping coactivator/corepressor binding surfaces (Stanley T. B. et al. Biochemistry 42:9278-87, 2003). Compounds were screened initially against PPARγ and PPARδ at 1 and 100 μM. If binding was observed, titration experiments from 10 nM to 100 μM were carried out in triplicate with all three PPARs. […] For screening, either enhancement or weakening of FP was considered active.
(§3) Virtual screening for PPARγ was conducted against 56,000 compounds from the Maybridge library that targeted the ligand binding domain (LBD) of PPARγ, and 10 conformations of each compound were docked to the LBD using Autdock4 software (Scripps Institute). Sixty of the top ranked compounds were ordered from Maybridge, and 58 were available for evaluation. Fluorescent Polarization (FP) assays were established with the tagged co-repressor peptides NCoR1 and SMRT, the recombinant PPARα and PPARγ ligand-binding domains and full-length PPARδ. […] Sd-107 and its analogs are disclosed herein. The chemical structure is shown below.

[3] = target: T2, PPARδ (Homo sapiens, UniProt Q03181); assay: Fluorescent Polarization (FP) binding assay with corepressor peptides, PPARδ; conditions: Nb = no binding
T2 construct: purchased Cayman Chemicals
T2 sequence (Q03181 1-441): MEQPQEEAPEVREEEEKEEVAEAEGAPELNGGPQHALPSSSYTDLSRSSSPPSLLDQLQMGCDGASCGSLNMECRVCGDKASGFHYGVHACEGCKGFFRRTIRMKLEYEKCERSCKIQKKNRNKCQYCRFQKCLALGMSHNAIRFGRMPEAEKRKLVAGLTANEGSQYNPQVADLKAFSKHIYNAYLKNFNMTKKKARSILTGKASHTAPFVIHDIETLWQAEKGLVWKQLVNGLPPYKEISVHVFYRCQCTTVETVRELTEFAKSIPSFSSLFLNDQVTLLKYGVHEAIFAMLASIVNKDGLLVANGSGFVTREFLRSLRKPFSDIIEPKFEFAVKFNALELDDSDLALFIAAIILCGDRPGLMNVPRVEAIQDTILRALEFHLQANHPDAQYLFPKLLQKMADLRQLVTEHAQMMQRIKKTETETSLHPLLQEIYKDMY
Description: as §1, §2, §3

[4] = target: T3, PPARγ (Homo sapiens, UniProt P37231); assay: Fluorescent Polarization (FP) binding assay with corepressor peptides, PPARγ; conditions: for pEC50: read-out: Binding assay EC50, γ
T3 construct: purchased Cayman Chemicals
T3 sequence (P37231 238-503 limits assumed): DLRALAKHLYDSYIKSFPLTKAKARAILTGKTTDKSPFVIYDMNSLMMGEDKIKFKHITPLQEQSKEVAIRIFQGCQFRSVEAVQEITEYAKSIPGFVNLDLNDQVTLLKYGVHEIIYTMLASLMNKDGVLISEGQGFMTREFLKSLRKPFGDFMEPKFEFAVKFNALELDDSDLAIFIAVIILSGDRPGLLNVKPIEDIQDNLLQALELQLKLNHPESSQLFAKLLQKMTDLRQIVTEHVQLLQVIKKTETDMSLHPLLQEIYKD
Description: as §1, §2, §3

[5] = test system: PPARα; assay: PPAR reporter assay in 293T cells, PPARα (agonist WY14643); type: cell-based; conditions: 1 μM agonist WY14643
[6] = test system: PPARα, PPARγ, PPARδ; assay: PPAR reporter assays, isotype profile over the three PPARs; conditions: for PPAR inhibitor type (Table 1): from reporter data
[7] = target: T4, PPARγ (Mus musculus, UniProt P37238); assay: PPAR reporter assay in 293T cells, PPARγ (agonist GW7845); type: cell-based; conditions: HEK-293T, 1 μM agonist GW7845, 293T cells, read-out: Reporter assay (% inhibition), γ; for inhibition at 1 µM: 1 μM compound; for inhibition at 10 µM: 10 μM compound; for inhibition at 25 µM: 25 μM compound
T4 construct: expressed in transfected cells; host or cells: 293T cells
T4 sequence (P37238 1-505): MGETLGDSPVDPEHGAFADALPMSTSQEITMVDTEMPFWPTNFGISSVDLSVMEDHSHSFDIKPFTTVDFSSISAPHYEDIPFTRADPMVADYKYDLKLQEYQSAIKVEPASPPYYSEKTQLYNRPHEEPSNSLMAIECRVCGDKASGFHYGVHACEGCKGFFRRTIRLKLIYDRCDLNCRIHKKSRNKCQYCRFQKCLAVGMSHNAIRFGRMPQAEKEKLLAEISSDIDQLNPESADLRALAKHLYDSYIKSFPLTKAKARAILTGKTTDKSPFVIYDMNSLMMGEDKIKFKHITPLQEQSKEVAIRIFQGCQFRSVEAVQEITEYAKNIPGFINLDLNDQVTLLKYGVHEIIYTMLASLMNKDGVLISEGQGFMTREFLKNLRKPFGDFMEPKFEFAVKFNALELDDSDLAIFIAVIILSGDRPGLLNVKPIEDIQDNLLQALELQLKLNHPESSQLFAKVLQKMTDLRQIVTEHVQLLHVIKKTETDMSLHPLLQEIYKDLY

SMILES	Reporter assay (% inhibition), δ ([1]; 1 μM compound)	Reporter assay (% inhibition), δ ([1]; 10 μM compound)	Reporter assay (% inhibition), δ ([1]; 25 μM compound)	Binding assay EC50, α [2]	Binding assay EC50, δ [3]	pEC50 ([4]; FP assay, Nb = no binding)	Reporter assay (% inhibition), α ([5]; 1 μM compound)	Reporter assay (% inhibition), α ([5]; 10 μM compound)	Reporter assay (% inhibition), α ([5]; 25 μM compound)	PPAR inhibitor type (Table 1) [6]	inhibition at 1 µM [7]	inhibition at 10 µM [7]	inhibition at 25 µM [7]	other results
O=C1NN(c2cccc(F)c2)C(=O)/C1=C\c1ccc(-c2ccc(S(=O)(=O)Nc3ncco3)cc2)o1 [Sd-107-10]	0%	0%	10%	nb	δ nb	6.25	0%	0%	20%	PPARγ inhibitor	0%	40%	85%	PPAR isotype selectivity in reporter assays ([6]; inhibition of activation by 1 μM agonist): greatest selectivity for PPARγ
O=C(NN(C(=O)c1ccc(Cl)cc1)S(=O)(=O)c1ccc(C(F)(F)F)cc1)c1ccc(Cl)cc1 [YL-1-81]			46%	nb	δ nb	4.82			8%	PPARγ/δ inhibitor			32%	
CC(C)(C)c1ccc(C(=O)N(N)S(=O)(=O)c2ccc(C(C)(C)C)cc2)cc1 [YL-1-69]	0%	10%	20%	α nb γ nb	δ nb		0%	15%	20%	Pan inhibitor	0%	25%	50%	Binding assay EC50, γ ([4]; FP assay, Nb = no binding): α nb γ nb
CC(C)(C)c1ccc(S(=O)(=O)N(NC(=O)c2ccc(O)cc2)C(=O)c2ccc(O)cc2)cc1 [YL-1-88]	0%	14%	40%	nb	δ nb	4.65	0%	0%	0%	PPARδ inhibitor	0%	0%	10%	
CC(C)(C)c1ccc(S(=O)(=O)N(NC(=O)c2ccc(Cl)cc2)C(=O)c2ccc(Cl)cc2)cc1 [YL-1-68-2]	0%	18%	46%	nb	δ nb	5.85	16%	23%	57%	Pan inhibitor	0%	23%	67%	
COc1ccc(S(=O)(=O)N(C(=O)c2ccc(Cl)cc2)N(C(=O)c2ccc(Cl)cc2)C(=O)c2ccc(Cl)cc2)cc1 [YL-1-38-1]	0%	0%	47%	nb	δ nb	4.39	0%	15%	40%	Pan inhibitor	0%	50%	75%	Reporter assay (% inhibition), δ ([1]; 2.5 μM compound): 0%; Effect on FP of corepressor peptide, PPARγ ([4]; FIG. 3): weakened the affinity of the peptide to PPARγ; Selectivity of binding in FP assay ([4]; titration with all three PPARs): selective binding to PPARγ; Reporter assay (% inhibition), α ([5]; 2.5 μM compound): 0%; inhibition at 2.5 µM ([7]; 2.5 μM compound): 16%
CC(C)(C)c1ccc(C(=O)N(NC(=O)c2ccc(Cl)cc2)S(=O)(=O)c2ccc(C(C)(C)C)cc2)cc1 [YL-1-80]	δ 12%	31%	64%	nb	δ nb	5.04	0%	24%	53%	Pan inhibitor	18%	58%	79%	Competition in FPA of PPARγ with fluorescent labeled NCoR peptide probe ([4]; FIG. 17, YL-1-80 analogs): best competition
